Here are results for one substance from US9314498B2, “Bacteriocin derived from Lactobacillus rhamnosus” (priority 2011, dated 2016).

Data set [1] has as its system Aggregatibacter actinomycetemcomitans Hudoe001 strain. Kind of data set: Antimicrobial activity against Aggregatibacter actinomycetemcomitans Hudoe001. It counts as cell-based. Conditions: tested 0 to 50 μM.
Data set [2] concerns Candida albicans GDH18 strain. Kind of data set: Antimicrobial activity (CFU count, percentage of living cells) against Candida albicans GDH18. In kind it is cell-based. Conditions: 37° C., 90 minutes, 1 mM phosphate buffer. The text has this:
As the Candida, cariogenic bacteria and periodontal disease bacteria, the Candida albicans GDH18 strain, Streptococcus sobrinus B-13 strain, Streptococcus mutans NCTC10449 strain, Streptococcus mutans Ingbritt strain, Porphyromonas gingivalis Hudoi001 strain and Aggregatibacter actinomycetemcomitans Hudoe001 strain were used. The test strains were provided from Faculty of Dentistry, Hiroshima University, Japan, and Hiroshima University Dental Hospital.
The Candida albicans GDH18 strain was precultured using SD medium (Difco) at 37° C. for 24 hours under aerobic conditions. The Streptococcus sobrinus B-13 strain, Streptococcus mutans NCTC10449 strain and Streptococcus mutans Ingbritt strain were precultured using TSB medium (Difco) supplemented with 5% yeast extract (Difco) at 37° C. for 24 hours under aerobic conditions. The Porphyromonas gingivalis Hudoi001 strain and Aggregatibacter actinomycetemcomitans Hudoe001 strain were precultured using BHI medium (Difco) supplemented with hemin (5 mg/L) and vitamin K3 (1 mg/L) at 37° C. for 96 hours under anaerobic conditions with Anaero Pack System (Mitsubishi Gas Chemical Company, Inc.).
After the culture, the cells of the Candida, cariogenic bacteria and periodontal disease bacteria were collected by centrifugation at 1000×g, and washed twice with 1 mM phosphate buffer (pH 6.8). The cells were then suspended such that the final concentration was 1×10^8 cfu/ml or 1×10^7 cells/m. For suspension of the Streptococcus strains, ultrasonic treatment was also carried out.
Evaluation of the antimicrobial activity was carried out by the method by Edgerton and others (1998) with some modifications. With 20 mL of 1 mM phosphate buffer containing 0 to 25 μM Kog1 or Kog2 synthesized in Example 1, 20 μl of the suspension of the Candida albicans GDH18 strain cultured and prepared by the method described in the above Preparation Example was mixed, and the resulting mixture was incubated at 37° C. for 90 minutes with shaking. As a control, 20 ml of 1 mM phosphate buffer alone was used. The reaction was stopped by addition of 360 ml of YNB medium (Difco), and the number of colonies formed (colony forming units; CFUs) was counted together with the number of colonies in the control, to determine the percentage of living bacterial cells. That is, the equation of: (CFUs of suspension containing Kog1 or Kog2/CFU ml^−1 of control suspension)×100 was used to calculate the percentage.

Data set [3] relates to Streptococcus mutans Ingbritt strain. Briefly: Antimicrobial activity against Streptococcus mutans Ingbritt. It counts as cell-based. Conditions: 0 to 100 μM, FIG. 5.
Data set [4] in a line: Measurement of the isoelectric point of the synthesized peptides. In kind it is physicochemical. Particulars: synthesized peptide. The source says: Among antimicrobial peptides, hBD2 (human P-defensin-2 (see Eur J., 2002, Oral Sci. (109), 121-124)) is well known as a basic antimicrobial peptide, and has an isoelectric point of about 10. However, the isoelectric points of Kog1 and Kog2 of the embodiment 2 were higher than the isoelectric point of hBD2, and more similar to the isoelectric points of antimicrobial peptides derived from mammals. Thus, Kog1 and Kog2 were confirmed to have less cytotoxicity.

Data set [5] deals with Porphyromonas gingivalis LPS (P.g-LPS) on RAW264.7 macrophage-like cells, TNF-α. Briefly: LPS inactivation: TNF-α secretion of RAW264.7 cells (ELISA). It counts as cell-based. How it is done: As a medium, RPMI 1640 medium supplemented with 10% FBS (Fetal Bovine Serum) (Biological industries, Haemek, Israel), 1% antibiotic and 1% L-glutamine was used. In each well of a 24-well plate, 400 μl of the medium was placed, and 100,000 cells/well of mouse-derived RAW264.7 macrophage-like cells were inoculated thereto.
The bacteriocin Kog1 or Kog2, which was the same as in Example 1, was incubated in an Eppendorf tube under each of the following 4 conditions together with Porphyromonas gingivalis LPS (manufactured by InvivoGen) (hereinafter referred to as P.g-LPS) and the same medium as described above, at 37° C. under a gas phase of 5% CO2 for 2 hours: (1) 100 ng/ml P.g-LPS positive control; (2) 100 ng/ml P.g-LPS+5 μM Kog1 or Kog2; (3) 100 ng/ml P.g-LPS+10 μM Kog1 or Kog2; (4) 100 ng/ml P.g-LPS+20 μM Kog1 or Kog2.
The above-described medium placed in each well of the 24-well plate was removed using a pipetteman, and the medium in the Eppendorf tube for each of the 4 conditions described above was placed in the plate, followed by culturing the cells in the well plate at 37° C. under a gas phase of 5% CO2 for 12 hours. Thereafter, the culture supernatant was collected, and the amount of a chemokine ccl2 or the amount of a cytokine TNF-α secreted into the medium was quantified by the ELISA method by measuring the absorbance at 450 nm using a microplate reader. Since both ccl2 and TNF-α are involved in formation of inflammation, analysis of the relationship between the endotoxin LPS and the bacteriocins Kog1 and Kog2 is possible.

For data set [6], the system named is MC3T3-E1 cells. Kind of data set: Differentiation into osteoblasts: Type-I collagen expression by real-time quantitative RT-PCR. It counts as cell-based, mouse. How it is done: MC3T3-E1 cells, which are mouse-derived osteoblast-like cells, were used. The MC3T3-E1 cells were cultured in α-modified Eagle's Medium (α-MEM) supplemented with 10% FBS (Biological industries, Haemek, Israel), L-glutamine, antibiotic mixture (Invitrogen), 50 μg/ml ascorbic acid (Sigma), and 0 nM, 250 nM, 500 nM or 1000 nM Kog2, at 37° C. under 5% CO2 on plastic or titanium. From the thus cultured MC3T3-E1 cells, total RNA was extracted using TRIzol reagent (Invitrogen), and cDNA was then prepared using ReverTra Ace reverse transcriptase (Toyobo Co., Ltd.). Subsequently, the prepared cDNA was used for analyzing expression of Type-I collagen, which is a differentiation marker for osteoblasts, and of β-actin, which is an endogenous control, by real-time quantitative RT-PCR. In the real-time quantitative RT-PCR, Type-I collagen was analyzed using the forward primer shown in SEQ ID NO: 8, the reverse primer shown in SEQ ID NO: 9 and the probe shown in SEQ ID NO: 10. β-actin was analyzed using the forward primer shown in SEQ ID NO: 11, the reverse primer shown in SEQ ID NO: 12, and the probe shown in SEQ ID NO: 13.

Regarding “Kog2: peptide having the amino acid sequence shown in SEQ ID NO: 2, bacteriocin of Lactobacillus rhamnosus, synthesized by the tea-bag method (MTKVRSSRLRPLTLRLLSAPARAQFLTIACRAILRYDLINS; listed as Lactobacillus rhamnosus)”, the “peptide concentration at which 100% of the strain was killed” value in data set [1] came to 1.56 µM; in data set [2], 0.39 µM. The “antimicrobial activity compared to the other antimicrobial peptides (hBD2, lysozyme)” value in data set [3] is listed as “capable of killing a larger amount of Streptococcus mutans even at relatively low peptide concentration”. The “isoelectric point (pl)” value in data set [4] is listed as 12.38. The “amount of the cytokine TNF-α secreted” value was “decreases” in data set [5] (100 ng/ml P.g-LPS + Kog2 above a certain level, as amount added increases) and “increases” in data set [5] (100 ng/ml P.g-LPS + small amount of Kog2 (5 μM)). For the same substance, the “value of Type I collagen/β-actin versus no Kog2 added” value in data set [6] (Kog2 at 250 nM vs ctrl) turned out to be 3 times. The “concentration that best promotes differentiation into osteoblasts” value in data set [6] (tested 0, 250, 500, 1000 nM) is recorded as “about 250 nM”.
